# Values of other authors as cited in patent US20080267939A1, “SYNERGISTIC ANTI-HYPERTENSIVE PHYTO-NUTRACEUTICAL COMPOSITION” (priority 2006, published 2008).
# Legend:
# [1] = tested on: bacterial resistance mechanism (multidrug pump); details: in the presence of 5′-MHC
# [2] = tested on: aged diabetic Zucker fatty rats
# blood pressure [3] = details: lower doses
# [4] = tested on: patients having class III or IV cardiomiopathy; details: group A, during CoQ10 treatment, oral
# [5] = target: platelet activating factor (PAF) membrane receptors (Homo sapiens, UniProt P25105)
# Sequence of platelet activating factor (PAF) membrane receptors (P25105 whole entry): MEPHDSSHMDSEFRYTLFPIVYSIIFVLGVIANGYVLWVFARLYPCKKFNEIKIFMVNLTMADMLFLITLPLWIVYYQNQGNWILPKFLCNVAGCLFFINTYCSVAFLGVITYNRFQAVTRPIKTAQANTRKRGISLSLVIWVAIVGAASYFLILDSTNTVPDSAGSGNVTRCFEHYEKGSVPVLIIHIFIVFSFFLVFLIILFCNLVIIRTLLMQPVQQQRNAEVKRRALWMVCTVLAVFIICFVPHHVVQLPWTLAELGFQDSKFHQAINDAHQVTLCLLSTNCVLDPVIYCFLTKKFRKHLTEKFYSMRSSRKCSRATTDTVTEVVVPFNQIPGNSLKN
# [6] = target: T1, endothelial NO synthase (eNOS) (Homo sapiens, UniProt P29474)
# T1 sequence (P29474 1-1203): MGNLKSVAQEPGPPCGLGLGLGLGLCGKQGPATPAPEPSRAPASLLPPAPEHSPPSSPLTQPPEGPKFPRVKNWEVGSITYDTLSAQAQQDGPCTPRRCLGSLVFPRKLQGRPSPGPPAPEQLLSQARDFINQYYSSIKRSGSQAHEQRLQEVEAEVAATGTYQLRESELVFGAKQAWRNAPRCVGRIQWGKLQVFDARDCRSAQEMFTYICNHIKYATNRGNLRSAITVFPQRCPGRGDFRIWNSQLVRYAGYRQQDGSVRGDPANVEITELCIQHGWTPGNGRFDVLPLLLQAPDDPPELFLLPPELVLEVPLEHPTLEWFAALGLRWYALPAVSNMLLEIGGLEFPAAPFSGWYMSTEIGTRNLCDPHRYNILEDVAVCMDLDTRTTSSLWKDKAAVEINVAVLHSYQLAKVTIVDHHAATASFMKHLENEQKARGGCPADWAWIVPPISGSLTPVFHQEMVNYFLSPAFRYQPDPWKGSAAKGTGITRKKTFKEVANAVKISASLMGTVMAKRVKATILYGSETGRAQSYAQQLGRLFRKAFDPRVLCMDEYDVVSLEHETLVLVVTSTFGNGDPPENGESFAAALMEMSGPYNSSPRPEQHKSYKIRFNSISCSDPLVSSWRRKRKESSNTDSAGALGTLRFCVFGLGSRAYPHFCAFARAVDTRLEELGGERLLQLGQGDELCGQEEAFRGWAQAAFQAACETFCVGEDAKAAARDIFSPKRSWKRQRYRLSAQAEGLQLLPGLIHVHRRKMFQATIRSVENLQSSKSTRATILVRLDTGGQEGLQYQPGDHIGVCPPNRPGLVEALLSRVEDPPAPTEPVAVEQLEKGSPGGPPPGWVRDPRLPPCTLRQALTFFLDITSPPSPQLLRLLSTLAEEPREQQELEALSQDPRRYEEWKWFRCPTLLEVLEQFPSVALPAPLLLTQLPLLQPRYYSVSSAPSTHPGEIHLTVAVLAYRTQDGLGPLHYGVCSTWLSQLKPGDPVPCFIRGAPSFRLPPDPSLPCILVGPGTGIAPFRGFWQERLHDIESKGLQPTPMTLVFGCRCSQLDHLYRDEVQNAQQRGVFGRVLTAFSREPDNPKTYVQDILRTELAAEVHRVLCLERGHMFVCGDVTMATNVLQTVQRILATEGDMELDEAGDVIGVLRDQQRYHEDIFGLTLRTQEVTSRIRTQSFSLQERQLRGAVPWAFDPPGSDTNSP
# blood pressure [7] = details: in vivo
# rabbit aortic rings = details: pre-contracted rabbit aortic rings
# renal hypertensive dogs = details: chronic oral administration
# L-type calcium channel [8] = target: T2, L-type calcium channel (Cavia porcellus, UniProt O35505); details: isolated guinea pig ventricular myocytes
# T2 construct: calcium channel in isolated guinea pig ventricular myocytes; endogenous in cells; host or cells: isolated guinea pig ventricular myocytes
# T2 sequence (O35505 whole entry): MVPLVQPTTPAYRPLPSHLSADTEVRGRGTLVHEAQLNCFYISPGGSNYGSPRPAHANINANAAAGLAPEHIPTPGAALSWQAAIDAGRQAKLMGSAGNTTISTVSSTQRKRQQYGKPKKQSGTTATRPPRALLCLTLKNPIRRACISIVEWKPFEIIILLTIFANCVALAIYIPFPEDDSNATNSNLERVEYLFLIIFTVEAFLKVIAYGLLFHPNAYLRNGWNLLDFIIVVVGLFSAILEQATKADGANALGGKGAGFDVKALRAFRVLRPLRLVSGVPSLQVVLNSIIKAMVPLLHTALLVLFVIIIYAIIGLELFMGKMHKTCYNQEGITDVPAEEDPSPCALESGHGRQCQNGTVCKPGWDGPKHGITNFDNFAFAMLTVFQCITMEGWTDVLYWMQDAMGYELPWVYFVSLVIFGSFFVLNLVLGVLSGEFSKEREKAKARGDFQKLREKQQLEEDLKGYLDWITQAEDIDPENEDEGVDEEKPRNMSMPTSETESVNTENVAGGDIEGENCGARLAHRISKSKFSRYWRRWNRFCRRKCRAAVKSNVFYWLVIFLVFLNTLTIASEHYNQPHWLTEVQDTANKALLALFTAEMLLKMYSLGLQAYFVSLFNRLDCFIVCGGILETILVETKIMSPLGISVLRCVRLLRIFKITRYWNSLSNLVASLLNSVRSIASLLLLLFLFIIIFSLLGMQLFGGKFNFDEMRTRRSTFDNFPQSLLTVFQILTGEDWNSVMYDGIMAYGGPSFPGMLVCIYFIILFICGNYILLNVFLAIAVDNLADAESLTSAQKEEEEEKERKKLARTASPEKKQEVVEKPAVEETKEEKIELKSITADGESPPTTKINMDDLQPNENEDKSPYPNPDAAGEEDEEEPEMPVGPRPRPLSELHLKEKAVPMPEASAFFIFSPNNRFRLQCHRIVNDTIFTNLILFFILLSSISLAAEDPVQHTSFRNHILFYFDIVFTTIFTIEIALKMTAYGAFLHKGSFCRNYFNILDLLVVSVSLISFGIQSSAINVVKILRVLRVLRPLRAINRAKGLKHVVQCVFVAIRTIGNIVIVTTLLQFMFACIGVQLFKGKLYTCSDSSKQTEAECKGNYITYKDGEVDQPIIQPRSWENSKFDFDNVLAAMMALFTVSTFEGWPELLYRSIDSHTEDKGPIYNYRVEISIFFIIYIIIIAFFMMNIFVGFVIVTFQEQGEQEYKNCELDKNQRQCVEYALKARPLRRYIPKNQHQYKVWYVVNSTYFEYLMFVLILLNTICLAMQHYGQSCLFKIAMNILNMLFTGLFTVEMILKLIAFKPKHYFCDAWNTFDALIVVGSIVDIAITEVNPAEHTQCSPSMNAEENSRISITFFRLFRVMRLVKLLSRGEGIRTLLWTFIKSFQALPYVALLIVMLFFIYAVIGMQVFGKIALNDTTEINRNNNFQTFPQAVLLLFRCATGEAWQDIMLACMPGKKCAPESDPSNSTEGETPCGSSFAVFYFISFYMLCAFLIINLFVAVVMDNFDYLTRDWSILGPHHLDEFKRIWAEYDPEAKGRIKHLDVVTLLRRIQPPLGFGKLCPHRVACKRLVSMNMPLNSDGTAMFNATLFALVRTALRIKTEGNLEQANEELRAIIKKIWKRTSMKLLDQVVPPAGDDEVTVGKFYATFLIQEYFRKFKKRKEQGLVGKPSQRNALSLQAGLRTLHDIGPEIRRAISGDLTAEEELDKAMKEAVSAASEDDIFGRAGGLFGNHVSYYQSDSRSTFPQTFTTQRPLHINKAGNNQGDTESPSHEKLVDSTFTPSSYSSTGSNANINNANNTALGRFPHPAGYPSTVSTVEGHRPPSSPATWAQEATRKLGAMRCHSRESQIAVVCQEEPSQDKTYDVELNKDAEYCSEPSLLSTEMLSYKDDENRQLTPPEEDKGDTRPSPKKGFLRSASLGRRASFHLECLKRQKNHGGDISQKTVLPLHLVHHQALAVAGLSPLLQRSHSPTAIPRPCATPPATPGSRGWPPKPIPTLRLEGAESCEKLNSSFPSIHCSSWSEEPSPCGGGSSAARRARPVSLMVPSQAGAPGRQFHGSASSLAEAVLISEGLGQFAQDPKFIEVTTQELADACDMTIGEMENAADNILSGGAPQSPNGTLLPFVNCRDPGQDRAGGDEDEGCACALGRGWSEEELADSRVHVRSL
# L-type calcium channel [9] = target: T3, L-type calcium channel (Rattus norvegicus, UniProt P22002); details: rat ventricular myocytes
# T3 construct: Effect of puerarin on L-type calcium channel in isolated rat ventricular myocytes; endogenous in cells; host or cells: isolated rat ventricular myocytes
# blood pressure [10] = details: clinically
# rat aorta [11] = details: endothelium-intact and endothelium-denuded rat aorta
# [12] = tested on: vascular smooth muscle cells
# [13] = tested on: spontaneously hypertensive rats
# [14] = tested on: vascular smooth muscle cells; remark: listed apart in the source
# rat aorta [15] = tested on: rat aorta
compound,measurement,setting,value
"COc1cc([C@H]2Oc3cc(-c4cc(=O)c5c(O)cc(O)cc5o4)cc(OC)c3O[C@@H]2CO)ccc1O (racemic) [5′-MHC, 5′-methoxyhydnocarpin]",accumulation of berberine in the cells,[1],strong increase
"O=C(O)CC(O)(C(=O)O)C(O)C(=O)O (single isomer, unassigned; (-)) [(−)-hydroxycitric acid (HCA), (−)-hydroxycitric acid]",blood pressures compared to control,[2],significantly lowered blood pressures
CCCCC[C@H](O)CC(=O)CCc1ccc(O)c(OC)c1 [(6)-gingerol],response on the blood pressure,blood pressure [3],produced depressor response
CCCCC/C=C/C(=O)CCc1ccc(O)c(OC)c1 [(6)-shogaol],response on the blood pressure,blood pressure [3],produced depressor response
"COC1=C(OC)C(=O)C(C/C=C(\C)CC/C=C(\C)CC/C=C(\C)CC/C=C(\C)CC/C=C(\C)CC/C=C(\C)CC/C=C(\C)CC/C=C(\C)CC/C=C(\C)CCC=C(C)C)=C(C)C1=O [CoQ10, Coenzyme Q10]",cardiac function,[4],significant increases in cardiac function
CC1C(=O)OC2C(O)C34C5CC(C(C)(C)C)C36C(OC(=O)C6O)OC4(C(=O)O5)C12O (centres unmarked) [Ginkgolide B],inhibition of platelet activating factor (PAF),[5],powerful inhibitor
CC(C)=CCC[C@](C)(O[C@@H]1O[C@H](CO)[C@@H](O)[C@H](O)[C@H]1O)[C@H]1CC[C@]2(C)[C@@H]1[C@H](O)C[C@@H]1[C@@]3(C)CC[C@H](O)C(C)(C)[C@@H]3[C@@H](O[C@@H]3O[C@H](CO)[C@@H](O)[C@H](O)[C@H]3O[C@@H]3O[C@@H](C)[C@H](O)[C@@H](O)[C@H]3O)C[C@]12C [Ginsenoside Re],eNOS activation / NO release,[6],activate endothelial NO synthase (eNOS) to release NO
C[C@@H]1O[C@@H](O[C@@H]2[C@@H](O)[C@H](OCCc3ccc(O)c(O)c3)O[C@H](CO)[C@H]2OC(=O)/C=C/c2ccc(O)c(O)c2)[C@H](O[C@@H]2OC[C@@H](O)[C@@H](O)[C@@H]2O)[C@H](O)[C@H]1O [Lavandulifolioside],blood pressure,blood pressure [7],decreases blood pressure
"O=C(O)CC[N+](=O)[O-] [NPA, 3-Nitropropionic acid]",relaxation of aortic rings,rabbit aortic rings,dose-dependent relaxation
same,blood pressure,renal hypertensive dogs,decrease in blood pressure
"O=c1c(-c2ccc(O)cc2)coc2c([C@@H]3O[C@H](CO)[C@@H](O)[C@H](O)[C@H]3O)c(O)ccc12 [Puerarin, puerarin]",NO concentration and blood pressure,rats with pre-eclampsia,elevate the level of NO concentration and decrease blood pressure
same,effect on L-type calcium channel,L-type calcium channel [8],blocking effect on L-type calcium channel in a concentration dependent manner
same,L-type calcium current,L-type calcium channel [9],inhibit L-type calcium current
same,decrease of blood pressure,laboratory animals,15%
same,systolic and diastolic blood pressure,blood pressure [10],reduces both systolic and diastolic blood pressure
same,contractions induced by phenylephrine,rat aorta [11],completely relaxed
same,proliferation and DNA synthesis of vascular smooth muscle cells,[12],suppress
COc1cc(/C=C/C(=O)O)ccc1O [ferulic acid],carotid arterial pressure,"[13]; intravenous injection, anesthetized hypertensive rats",dose dependently reduced
same,systolic blood pressure,"[13]; oral administration, hypertensive rats",significantly decreased
CCC/C=C1\OC(=O)C2=C1CCC=C2 [ligustilide],vascular smooth muscle cells proliferation and cell cycle progression,[14],significantly inhibited
Cycloleonuripeptide E,vasorelaxant effects,rat aorta [15],moderate vasorelaxant effects
cycloleonuripeptide F,vasorelaxant effects,rat aorta [15],moderate vasorelaxant effects
niacin-bound chromium,blood pressures compared to control,[2],significantly lowered blood pressures
